{
  "source": "patent US8809386B2",
  "about": "“Use of dynamin ring stabilizers” (Children's Medical Research Institute, priority 2009, dated 2014)",
  "key": {"[1]": {"test_system": "cultured mouse podocytes", "assay": "Actin cytoskeleton and focal adhesions in cultured podocytes (rhodamine-phalloidin, anti-paxillin)", "type": "cell-based", "conditions": "10 min after addition", "description": "FIG. 19 is a photograph showing the effects of Bis-T-23 on the actin cytoskeleton in podocytes. Cells were stained using rhodamine-phalloidin for F-actin (left column) and anti-paxillin monoclonal antibody (centre column). The merged staining is shown on the right column.\n(§1) To determine if the in vitro action of the dynamin ring stabilizers also occurs in cells, the effect of Bis-T-23 on the actin cytoskeleton in cultured mouse podocytes was tested (FIG. 19). […] Thus, the observed increase in stress fibers is unlikely due to inhibition of endocytosis."}, "[2]": {"test_system": "purified full length dynamin I", "assay": "Electron microscopy of dynamin ring formation in the absence of a template", "type": "biochemical", "conditions": "5.4 μM, 200 nM dynamin, no template, FIG. 9C", "description": "Dynamin was then examined by electron microscopy. […] The rings are bona fide dynamin rings (B).\nNext, the effect of a ring stabilizer Bis-T-23 on the formation of dynamin rings in the absence of a template like PS liposomes was examined. At high concentrations in vitro, dynamin is well known to self-assemble into rings that are detectable by EM (Hinshaw and Schmid, 1995). Such self assembly requires high dynamin concentrations typically in the order of 500-1000 nM and is not observed at lower dynamin concentrations. Specifically, the effect of Bis-T-23 (5.4 μM) on 200 nM dynamin in the absence of template was tested, which is well below the concentration threshold for self-assembly. […] High power images confirmed that the electron dense structures are bona fide dynamin rings (FIG. 9B). […] The findings with basal dynamin are completely unexpected for a dynamin inhibitor and are indicative of the ring stabilizer activity."}, "[3]": {"biological_target": "native brain dynamin I (Ovis aries, UniProt A0ACI6NZN1)", "sequence (A0ACI6NZN1 entry or part of it)": "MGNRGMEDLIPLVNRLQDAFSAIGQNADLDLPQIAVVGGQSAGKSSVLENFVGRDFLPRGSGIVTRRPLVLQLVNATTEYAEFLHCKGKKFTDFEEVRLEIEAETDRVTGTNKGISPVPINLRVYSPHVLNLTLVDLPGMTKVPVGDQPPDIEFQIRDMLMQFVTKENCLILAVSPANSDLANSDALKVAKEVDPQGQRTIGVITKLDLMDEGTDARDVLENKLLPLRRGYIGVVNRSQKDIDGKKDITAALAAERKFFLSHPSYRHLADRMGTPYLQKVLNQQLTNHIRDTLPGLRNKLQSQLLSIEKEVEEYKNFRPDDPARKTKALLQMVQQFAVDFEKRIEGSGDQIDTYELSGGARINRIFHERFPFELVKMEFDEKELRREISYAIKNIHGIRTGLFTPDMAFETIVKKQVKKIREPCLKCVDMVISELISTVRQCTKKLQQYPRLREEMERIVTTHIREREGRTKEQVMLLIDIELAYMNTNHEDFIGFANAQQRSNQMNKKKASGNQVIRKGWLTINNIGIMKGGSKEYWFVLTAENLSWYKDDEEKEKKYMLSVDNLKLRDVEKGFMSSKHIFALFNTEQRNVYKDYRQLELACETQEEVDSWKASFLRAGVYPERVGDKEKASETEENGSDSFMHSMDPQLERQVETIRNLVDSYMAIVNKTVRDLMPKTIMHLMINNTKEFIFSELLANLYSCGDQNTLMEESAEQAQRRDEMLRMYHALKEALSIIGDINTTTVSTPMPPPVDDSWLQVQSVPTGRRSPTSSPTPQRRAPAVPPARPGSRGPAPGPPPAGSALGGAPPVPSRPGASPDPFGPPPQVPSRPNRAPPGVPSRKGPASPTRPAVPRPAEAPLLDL", "assay": "PS liposome-stimulated (helical) dynamin I GTPase activity, inhibition", "type": "biochemical, sheep", "conditions": "5 μM, increasing dynamin concentrations, FIG. 1", "description": "Each of the dyngo compounds was synthesized by a simple one-step condensation reaction coupling 3-hydroxy-2-naphthoic acid hydrazide with a variety of hydroxyl substituted benzaldehydes affording a focussed library as illustrated by Scheme 1 below (e.g., by mixing the reagents in ethanol (e.g., 10 ml) in a round bottomed flask, refluxing the mixture for 2 hours, allowing it to cool and removing the solvent in vacuo prior to recrystallizing the product from ethanol although other synthesis methods available).\nAmong the various classes of dynamin inhibitors are subsets of dynamin ring stabilizers."}, "[4]": {"test_system": "LPS-induced proteinuria, BALB/c mice", "assay": "LPS-induced proteinuria in mice", "type": "in vivo, mouse", "conditions": "IP, 300 μg per 100 g body weight", "description": "FIG. 21 is a graph showing that the ring stabilizer Bis-T-23 rescues proteinuria in lipopolysaccharide (LPS) treated mice. LPS is a model for proteinuric kidney disease. Albumin levels were determined in 6 mice prior to (Con), 24 hours after LPS injection (2×LPS), and 2, 4, 6 and 8 h after administration of Bis-T-23 (open bars) or DMSO (delivery solution, grey bars). A decrease in proteinuria was noted from 2-8 hours after administration of a single dose of this ring stabilizer.\nA second model of acute proteinuria was then employed to test the ability of a dynamin ring stabilizer to ameliorate proteinuria in a reversible model of proteinuric kidney disease. LPS-induced proteinuria was utilized as previously described (Sever et al., 2007). Briefly, four week old female BALB/c mice were injected twice intraperitoneally (IP) with 200 μg of ultrapure LPS diluted in phosphate-buffered saline at a concentration of 1 mg/ml. Proteinuria developed within 48 h (FIG. 20, 2×LPS). Bis-T-23 was dissolved in DMSO to the appropriate concentrations and 300 μg per 100 g body weight was delivered by IP injection, and DMSO was used as a vehicle control. The level of protein in the urine was determined by using mouse Albumin-specific ELISA kit according to manufacturer's protocol (Bethyl Laboratories)."}, "[5]": {"test_system": "endocytosis", "assay": "Endocytosis in cells (data not shown)", "type": "cell-based", "description": "as §1"}, "[6]": {"test_system": "dynamin I", "assay": "Dynamin disassembly centrifugation assay, helix preassembled on PS liposomes", "type": "biochemical", "conditions": "FIG. 7", "description": "Briefly, dynamin I was preassembled as a helix in the presence of PS liposomes for 30 min, after which the dynamin ring stabilizer Bis-T-23 or non-dynamin ring stabilizer dynole 34-2 (see Example 4) were added. The samples were then centrigued in a microfuge for 10 min to collect supernatans (Sup) or pellets. In this assay, helical dynamin is found primarily in the pellet. However, the addition of either NaCl (150 mM) or Mg/GTP (1 mM) is known to disassemble dynamin and it is found primarily in the supernatant (see FIG. 7). […] This unique mechanism of action explains why dynamin ring stabilizers can stimulate basal GTPase while inhibiting helical dynamin GTPase activity at the same time."}},
  "data": [
    {"smiles": "N#CC(=Cc1cc(O)c(O)c(O)c1)C(=O)NCCCNC(=O)C(C#N)=Cc1cc(O)c(O)c(O)c1", "note": "[Bis-T-23, 2-cyano-N-{3-[2-cyano-3-(3,4,5-trihydroxyphenyl)-acryloylamino]-propyl}-3-(3,4,5-trihydroxyphenyl)-acrylamide]", "values": [
      {"measurement": "stress fibers in podocytes", "setting": "[1]; FIG. 19", "result": "dramatic increase in well-defined stress fibers"},
      {"measurement": "number of focal adhesions (paxillin staining)", "setting": "[1]; FIG. 19B", "result": "dramatic increase in the number of focal adhesions"},
      {"measurement": "increase in bona fide dynamin rings", "setting": "[2]", "result": 6, "unit": "fold"},
      {"measurement": "inhibition of liposome-stimulated dynamin GTPase activity", "setting": "[3]", "result": "potently inhibits dynamin at all points"},
      {"measurement": "proteinuria (urine albumin)", "setting": "[4]; 2-6 h after injection, FIG. 21", "result": "partially rescued proteinuria"},
      {"measurement": "proteinuria (urine albumin)", "setting": "[4]; 8 h after injection", "result": "ability to rescue proteinuria was reduced"},
      {"measurement": "endocytosis", "setting": "[5]", "result": "inhibits endocytosis"},
      {"measurement": "disassembly of helical dynamin by NaCl (150 mM) or Mg/GTP (1 mM)", "setting": "[6]", "result": "reduce the disassembly of helical dynamin"}
    ]}
  ]
}
